Positions of bridges follow the written chain, without caps; N, C: chain ends. Non-standard residues stand in square brackets, D forms with d. Residues, ends and D or L forms follow the SMILES beside them. pS = N[C@@H](COP(=O)(O)O)C(=O)O
Columns and labels:
[1] = biological target: T1, human prostate acid phosphatase (HuPrAP) (Homo sapiens, UniProt P15309); test: Acid phosphatase reaction, human prostate acid phosphatase; assay type: in vitro ADME; conditions: Human prostatic acid phosphatase pH 5, 90 minutes at 37° C.
T1 construct: purchased MP Biochemicals 153872
T1 sequence (P15309 33-386): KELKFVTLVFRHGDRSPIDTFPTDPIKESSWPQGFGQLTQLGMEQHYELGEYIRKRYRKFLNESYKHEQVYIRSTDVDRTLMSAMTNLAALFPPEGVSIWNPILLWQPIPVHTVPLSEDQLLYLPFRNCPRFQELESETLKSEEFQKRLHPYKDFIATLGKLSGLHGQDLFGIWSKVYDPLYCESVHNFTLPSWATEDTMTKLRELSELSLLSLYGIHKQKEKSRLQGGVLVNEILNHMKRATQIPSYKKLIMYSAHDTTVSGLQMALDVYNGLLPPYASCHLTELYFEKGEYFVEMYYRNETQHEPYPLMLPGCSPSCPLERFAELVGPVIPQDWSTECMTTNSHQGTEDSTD
Experimental: (§1) For the alkaline phosphatase reactions, peptide stocks were prepared at 1 mg/mL in 0.1 M Tris-HCl pH 8, which were stored at −20° C. until assays were conducted. For the acid phosphatase reactions, peptide stocks were prepared at 1 mg/mL in 50 mM sodium phosphate pH 6, which was stored at −20° C. until assays were conducted.
(§2) Potato acid phosphatase (PoAP) was obtained from Sigma, St. Louis, Miss. Cat #P1146 and human prostate acid phosphatase (HuPrAP) was obtained from MP Biochemicals, Solon, Ohio. Cat #153872. The acid phosphatases were dissolved to provide a solution containing 0.5 units AP/4 using 50 mM sodium acetate pH 5, 0.2 mM MgCl2. The acid phosphatase reactions were assembled in 20 μL quantities containing: • 2 μL 10× acid phosphatase buffer (500 mM sodium acetate pH 5, 2 mM MgCl2) • 2 μL peptide stock (1 mg/mL) • 12 μL H2O • 4 μL acid phosphatase (0.5 or 2 units)
(§3) The reaction solutions were mixed gently and incubated for 90 minutes at 37° C. The reaction solutions were stored at −20° C. for later analysis. For analysis, 7.5 μL acid phosphatase reactions were diluted to 50 μL with 0.1% formic acid in water to a final concentration of 10 μM. The control reactions for enzyme activity were assembled and diluted to 10 mM p-nitrophenylphosphate in place of peptide. After incubation, the reactions were diluted with 0.1 mL of 100 mM borate buffer pH 9 and read at the absorbance of 405 nm to monitor p-nitrophenol appearance.

[2] = system: Potato acid phosphatase (PoAP); test: Acid phosphatase reaction, potato acid phosphatase; assay type: in vitro ADME; conditions: Potato acid phosphatase pH 5, 90 minutes at 37° C.
Experimental: as §1, §2, §3

[3] = biological target: T2, Calf intestinal alkaline phosphatase (CIP) (Bos taurus, UniProt P19111); test: Alkaline phosphatase reaction on peptide substrates; assay type: in vitro ADME; conditions: for Dephospho (%) / Remaining (%): Alkaline phosphatase pH 8, 90 minutes at 37° C.
T2 construct: purchased New England BioLabs M0290S
T2 sequence (P19111 20-506): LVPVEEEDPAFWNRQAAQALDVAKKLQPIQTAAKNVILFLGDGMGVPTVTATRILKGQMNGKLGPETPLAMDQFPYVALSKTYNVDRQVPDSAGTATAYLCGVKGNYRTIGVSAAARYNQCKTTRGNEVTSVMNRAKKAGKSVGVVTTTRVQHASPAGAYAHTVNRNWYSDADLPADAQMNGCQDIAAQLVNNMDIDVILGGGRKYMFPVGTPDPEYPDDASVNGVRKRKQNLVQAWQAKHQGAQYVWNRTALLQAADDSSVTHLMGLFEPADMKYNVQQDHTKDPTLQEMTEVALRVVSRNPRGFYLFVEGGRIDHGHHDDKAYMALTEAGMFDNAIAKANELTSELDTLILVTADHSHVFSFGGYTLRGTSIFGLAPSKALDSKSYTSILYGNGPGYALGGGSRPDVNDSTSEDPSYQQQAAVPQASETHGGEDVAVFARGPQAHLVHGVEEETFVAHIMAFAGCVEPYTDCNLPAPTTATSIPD
Experimental: as §1
Calf intestinal alkaline phosphatase (CIP) was obtained from New England BioLabs, Ipswich, Mass. Cat # M0290S. The CIP reaction solution was prepared by dilution with buffer (50 mM KCl, 10 mM Tris-HCl pH 8, 1 mM MgCl2, 50% glycerol) to 0.5 units/4. The alkaline phosphatase reaction solutions were assembled in 20 μL quantities containing:
2 μL 10×CIP buffer (1M NaCl, 500 mM Tris-HCl pH 8, 100 mM MgCl2)
2 μL peptide stock (1 mg/mL)
4 μL alkaline phosphatase (0, 0.5 or 2 units)
The reaction solutions were mixed gently and incubated for 90 minutes at 37° C. These reaction solutions were stored at −20° C. until analysis. For analysis, the reaction solutions were diluted from 7.5 μL of CIP treated peptide to 50 μL with 0.1% formic acid in water to a final concentration of 10 μM.
Control reactions were assembled for enzyme activity containing 10 mM p-nitrophenylphosphate in place of peptide. After incubation, the reactions were diluted with 0.1 mL of 100 mM borate buffer pH 9 and read at the absorbance of 405 nm to monitor p-nitrophenol appearance.

[4] = after oral administration at therapeutic dose levels; cited from earlier work
[5] = In vitro metabolism in mouse jejunum loop fluid; assay type: in vitro ADME; conditions: 37° C.; for metabolism in the control reaction: control reaction (1 M Tris-HCl), 120 minute incubation
Experimental: The purpose of this study was to determine the stability of phosphorylated peptides in mouse jejunal loop fluid. […] The isotopically labeled peptide 2 was synthesized with ^13C, ^15N-labeled alanine and leucine (i.e., with a sequence CCpS[^13C6, ^15N]LCCNP[^13C6, ^15N]ACTGC).
Each peptide was synthesized by American Peptide Company, Inc., and was stored desiccated at −20° C. A 1 mg/mL solution for each of the non-labeled peptides was prepared in 1 M tris (hydroxymethyl) aminomethane hydrochloride (Tris-HCl), pH 8 just prior to conducting the mouse intestinal loop fluid assay. A 500 ng/mL solution of ^13C, ^15N-labeled peptide 2 was prepared in 0.1% formic acid in water and was utilized to dilute the jejunum samples for post-assay LC-MS/MS analysis.
To collect the fluid, mice were fasted overnight with full access to water. They were then anesthetized with isofluorane for surgery and subjected to laparotomy in which the small intestine was exteriorized. Jejunum loops of 3 to 4 cm in length were made with sutures starting at 7 cm from the pyloric sphincter of the stomach. Once the loops were formed, they were injected with 200 μL of phosphate buffered saline (PBS) buffer (10 mM, pH 7.4). The abdominal wall and skin of the animals were then sutured, and the animals were allowed to recover for 30 minutes. Following recovery, the animals were sacrificed, the loops were then excised and the fluid inside was recovered and stored at −80° C. until use.
For each peptide, 254 of the 1 mg/mL peptide stock solution was added to 25 of 1 M Tris-HCl and 25 μL of 10× calf intestinal phosphatase (CIP) buffer containing 500 mM Tris-HCl, 1 M sodium chloride (NaCl), […] (MgCl2), pH 8. The reactions were initiated by adding 175 pit of the mouse jejunum loop fluid or 175 μL of the 1 M Tris-HCl pH8 buffer for the control reactions. The final concentration of each peptide was 100 μg/mL. The reactions were continuously mixed and maintained at 37° C. on a plate shaker. At 0, 2, 5, 10, 20, 30, 60, 90 and 120 minutes after adding the mouse intestinal loop fluid, a 25 μL aliquot was taken and added to 25 μL of 4° C. 12% trichloroacetic acid to stop the reaction. An additional 200 μL of 0.1% formic acid in water was added to these reactions for dilution purposes. These samples were then further diluted by taking 20 μL of each sample and adding it to 480 μL of 0.1% formic acid in water containing 500 ng/mL of the internal standard ^13C, ^15N-labeled peptide 2.
All samples were analyzed using an Applied Biosystems/MDS SCIEX API 4000 triple quadrupole mass spectrometer equipped with a high-performance liquid chromatography (HPLC) system. The mass spectrometer was operated in multiple reaction monitoring (MRM) mode, with resolution set to 1.2 Da.
The LC-MS/MS data were processed using Analyst version 1.4.2 software (Applied Biosystems/MDS SCIEX). The peak area ratio (ratio of analyte peak area to internal standard peak area) was used to calculate the percent remaining of each peptide.

SMILES | Dephospho (%) [1] | Dephospho (%) [2] | Dephospho (%) [3] | Remaining (%) [3] | metabolism in the control reaction [5] | degradation in mouse intestinal fluid compared with peptide 2 [5] | also measured
O=[N+]([O-])c1ccc(OP(=O)(O)O)cc1 [p-nitrophenylphosphate] | 100% | 100% | 100% | 0% |  |  | Remaining (%) [1]: 0%; Remaining (%) [2]: 0%
CC(C)C[C@@H]1NC(=O)[C@H](COP(=O)(O)O)NC(=O)[C@@H]2CSSC[C@@H]3NC(=O)[C@H](C)NC(=O)[C@@H]4CCCN4C(=O)[C@H](CC(N)=O)NC(=O)[C@H](CSSC[C@H](N)C(=O)N2)NC(=O)[C@H](CSSC[C@@H](C(=O)N[C@@H](Cc2ccc(O)cc2)C(=O)O)NC(=O)CNC(=O)[C@H]([C@@H](C)O)NC3=O)NC1=O [Peptide 1, CCpSLCCNPACTGCY] (H-CC[pS]LCCNPACTGCY-OH; disulfide 1-6, 2-10, 5-13 (inferred); N-terminus and C-terminus assumed) | 6.2% | 22.1% | 100% | 0% |  |  | 
C[C@@H]1NC(=O)[C@@H]2CCCN2C(=O)[C@H](CC(N)=O)NC(=O)[C@@H]2CSSC[C@H](N)C(=O)N[C@H]3CSSC[C@H](NC1=O)C(=O)N[C@@H]([C@@H](C)O)C(=O)NCC(=O)N[C@H](C(=O)N[C@@H](Cc1ccc(O)cc1)C(=O)O)CSSC[C@H](NC(=O)[C@H](Cc1ccc(O)cc1)NC(=O)[C@H](CCC(=O)O)NC3=O)C(=O)N2 [linaclotide, Linaclotide] (H-CCEYCCNPACTGCY-OH; disulfide 1-6, 2-10, 5-13) |  |  |  |  |  |  | levels seen systemically [4]: no detectable levels
CC(C)C[C@@H]1NC(=O)[C@H](CO)NC(=O)[C@@H]2CSSC[C@@H]3NC(=O)[C@H](C)NC(=O)[C@@H]4CCCN4C(=O)[C@H](CC(N)=O)NC(=O)[C@H](CSSC[C@H](N)C(=O)N2)NC(=O)[C@H](CSSC[C@@H](C(=O)O)NC(=O)CNC(=O)[C@H]([C@@H](C)O)NC3=O)NC1=O [Dephospho-Peptide 2, CCSLCCNPACTGC] (H-CCSLCCNPACTGC-OH; disulfide 1-6, 2-10, 5-13 (inferred); N-terminus and C-terminus assumed) |  |  |  |  | not metabolized | degraded faster | 
CC(C)C[C@@H]1NC(=O)[C@H](COP(=O)(O)O)NC(=O)[C@@H]2CSSC[C@@H]3NC(=O)[C@H](C)NC(=O)[C@@H]4CCCN4C(=O)[C@H](CC(N)=O)NC(=O)[C@H](CSSC[C@H](N)C(=O)N2)NC(=O)[C@H](CSSC[C@@H](C(=O)O)NC(=O)CNC(=O)[C@H]([C@@H](C)O)NC3=O)NC1=O [Peptide 2, CCpSLCCNPACTGC] (H-CC[pS]LCCNPACTGC-OH; disulfide 1-6, 2-10, 5-13 (inferred); N-terminus and C-terminus assumed) | 4.1% |  | 100% |  | not metabolized |  | metabolite formed ([5]; mouse jejunum fluid, increased for the first 20 minutes then slow decrease): dephospho-peptide 2
CC(C)C[C@@H]1NC(=O)[C@H](CCC(=O)O)NC(=O)[C@@H]2CSSC[C@@H]3NC(=O)[C@H](C)NC(=O)[C@@H]4CCCN4C(=O)[C@H](CC(N)=O)NC(=O)[C@H](CSSC[C@H](N)C(=O)N2)NC(=O)[C@H](CSSC[C@@H](C(=O)N[C@@H](Cc2ccc(O)cc2)C(=O)O)NC(=O)CNC(=O)[C@H]([C@@H](C)O)NC3=O)NC1=O [Peptide 3, CCELCCNPACTGCY] (H-CCELCCNPACTGCY-OH; disulfide 1-6, 2-10, 5-13 (inferred); N-terminus and C-terminus assumed) |  |  |  |  | not metabolized | degraded faster | Effect of CIP treatment on the peptide (LC-MS) ([3]; with and without calf intestinal alkaline phosphatase, data not shown): not affected; peptide detected after 90 minutes ([5]; mouse jejunum fluid, 100 μg/mL peptide): not detected

Source: US20160213739A1, “TREATMENTS FOR DISORDERS USING GUANYLATE CYCLASE C AGONISTS” (Ironwood Pharmaceuticals, Inc., priority 2011, published 2016)
